Data as given in US10597388B2, “Pyridazinone herbicides” (FMC CORPORATION, priority 2014, dated 2020).

How the values were obtained:
Test in all cases: Test C greenhouse herbicide test, pre- and postemergence
Type in all cases: in vivo
[1] = tested on: barnyardgrass (Echinochloa crus-galli)
Procedure, shortened: (§1)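 Preemergence: seeds sown in a loam soil–sand blend and sprayed with test chemicals in a non-phytotoxic solvent mixture containing surfactant. Postemergence: plants grown in peat-based medium and treated at 2 to 18 cm (1- to 4-leaf stage). After 13 to 15 d in a greenhouse, injury was visually rated 0–100 against controls.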

[2] = tested on: blackgrass (Alopecurus myosuroides)
Procedure, shortened: as §1

[3] = tested on: corn (Zea mays)
Procedure, shortened: as §1

[4] = tested on: foxtail, giant (giant foxtail, Setaria faberii); settings: Postemergence
Procedure, shortened: as §1

[5] = tested on: galium (catchweed bedstraw, Galium aparine)
Procedure, shortened: as §1

[6] = tested on: johnsongrass (Sorghum halepense)
Procedure, shortened: as §1

[7] = tested on: lambsquarters (Chenopodium album)
Procedure, shortened: as §1

[8] = tested on: morningglory (Ipomoea coccinea)
Procedure, shortened: as §1

[9] = tested on: nutsedge, yellow (yellow nutsedge, Cyperus esculentus)
Procedure, shortened: as §1

[10] = tested on: pigweed (Amaranthus retroflexus)
Procedure, shortened: as §1

[11] = tested on: ragweed (common ragweed, Ambrosia elatior)
Procedure, shortened: as §1

[12] = tested on: ryegrass, Italian (Italian ryegrass, Lolium multiflorum)
Procedure, shortened: as §1

[13] = tested on: soybean (Glycine max)
Procedure, shortened: as §1

[14] = tested on: velvetleaf (Abutilon theophrasti)
Procedure, shortened: as §1

[15] = tested on: waterhemp (common waterhemp, Amaranthus rudis)
Procedure, shortened: as §1

[16] = tested on: wheat (winter wheat, Triticum aestivum)
Procedure, shortened: as §1

[17] = Postemergence, 31 g ai/ha, scale 0 to 100 (0 no effect, 100 complete control)
[18] = Postemergence, 125 g ai/ha, scale 0 to 100, 0 is no effect, 100 is complete control
[19] = Postemergence, 250 g ai/ha, scale 0 to 100, 0 no effect, 100 complete control, 13 to 15 d
[20] = Preemergence, 31 g ai/ha, scale 0 to 100, 0 is no effect, 100 is complete control
[21] = Preemergence, 62 g ai/ha, scale 0 to 100, 0 is no effect, 100 is complete control
[22] = Preemergence, 125 g ai/ha, scale 0 to 100, 0 is no effect, 100 is complete control
[23] = Preemergence, 250 g ai/ha, scale 0 to 100 (0 no effect, 100 complete control)
[24] = postemergence, 62 g ai/ha, scale 0 to 100, 0 no effect, 100 complete control
[25] = 31 g ai/ha, scale 0 to 100 (0 no effect, 100 complete control)
[26] = 125 g ai/ha, scale 0 to 100, 0 is no effect, 100 is complete control
[27] = 250 g ai/ha, scale 0 to 100, 0 no effect, 100 complete control, 13 to 15 d

SMILES: Cc1sc2ccc(Cl)cc2c1-c1c(OS(C)(=O)=O)c(Cl)nn(C)c1=O [Compound 114]
- Plant response rating, Barnyardgrass [1, 17]: 30
- Plant response rating, Barnyardgrass [1, 18]: 40
- Plant response rating, Barnyardgrass [1, 19]: 40
- Plant response rating, Barnyardgrass [1, 20]: 5
- Plant response rating, Barnyardgrass [1, 21]: 10
- Plant response rating, Barnyardgrass [1, 22]: 60
- Barnyardgrass plant response rating [1, 23]: 95
- Barnyardgrass plant response rating [1, 24]: 35
- Plant response rating, Blackgrass [2, 17]: 0
- Plant response rating, Blackgrass [2, 18]: 5
- Plant response rating, Blackgrass [2, 19]: 15
- Plant response rating, Blackgrass [2, 20]: 0
- Plant response rating, Blackgrass [2, 21]: 5
- Plant response rating, Blackgrass [2, 22]: 5
- Blackgrass plant response rating [2, 23]: 10
- Blackgrass plant response rating [2, 24]: 0
- Plant response rating, Corn [3, 17]: 0
- Plant response rating, Corn [3, 18]: 0
- Plant response rating, Corn [3, 19]: 0
- Plant response rating, Corn [3, 20]: 0
- Plant response rating, Corn [3, 21]: 5
- Plant response rating, Corn [3, 22]: 5
- Corn plant response rating [3, 23]: 5
- Corn plant response rating [3, 24]: 0
- Plant response rating, Foxtail, Giant [4, 25]: 10
- Plant response rating, Foxtail, Giant [4, 26]: 50
- Plant response rating, Foxtail, Giant [4, 27]: 85
- Plant response rating, Galium [5, 17]: 95
- Plant response rating, Galium [5, 18]: 95
- Plant response rating, Galium [5, 19]: 95
- Plant response rating, Galium [5, 20]: 98
- Plant response rating, Galium [5, 21]: 98
- Plant response rating, Galium [5, 22]: 100
- Galium plant response rating [5, 23]: 100
- Plant response rating, Johnsongrass [6, 17]: 5
- Plant response rating, Johnsongrass [6, 18]: 5
- Plant response rating, Johnsongrass [6, 19]: 15
- Plant response rating, Johnsongrass [6, 20]: 0
- Plant response rating, Johnsongrass [6, 21]: 0
- Plant response rating, Johnsongrass [6, 22]: 0
- Johnsongrass plant response rating [6, 23]: 0
- Plant response rating, Lambsquarters [7, 17]: 95
- Plant response rating, Lambsquarters [7, 18]: 100
- Plant response rating, Lambsquarters [7, 19]: 100
- Plant response rating, Lambsquarters [7, 20]: 90
- Plant response rating, Lambsquarters [7, 21]: 98
- Plant response rating, Lambsquarters [7, 22]: 90
- Lambsquarters plant response rating [7, 23]: 95
- Plant response rating, Morningglory [8, 17]: 95
- Plant response rating, Morningglory [8, 18]: 100
- Plant response rating, Morningglory [8, 19]: 100
- Plant response rating, Morningglory [8, 20]: 25
- Plant response rating, Morningglory [8, 21]: 55
- Plant response rating, Morningglory [8, 22]: 75
- Morningglory plant response rating [8, 23]: 90
- Plant response rating, Nutsedge, Yellow [9, 17]: 10
- Plant response rating, Nutsedge, Yellow [9, 18]: 25
- Plant response rating, Nutsedge, Yellow [9, 19]: 35
- Plant response rating, Nutsedge, Yellow [9, 20]: 10
- Plant response rating, Nutsedge, Yellow [9, 21]: 40
- Plant response rating, Nutsedge, Yellow [9, 22]: 65
- Nutsedge, Yellow plant response rating [9, 23]: 95
- Plant response rating, Pigweed [10, 17]: 80
- Plant response rating, Pigweed [10, 18]: 95
- Plant response rating, Pigweed [10, 19]: 95
- Plant response rating, Pigweed [10, 20]: 98
- Plant response rating, Pigweed [10, 21]: 90
- Plant response rating, Pigweed [10, 22]: 100
- Pigweed plant response rating [10, 23]: 100
- Plant response rating, Ragweed [11, 17]: 90
- Plant response rating, Ragweed [11, 18]: 98
- Plant response rating, Ragweed [11, 19]: 100
- Plant response rating, Ragweed [11, 20]: 55
- Plant response rating, Ragweed [11, 21]: 75
- Plant response rating, Ragweed [11, 22]: 95
- Ragweed plant response rating [11, 23]: 98
- Plant response rating, Ryegrass, Italian [12, 17]: 60
- Plant response rating, Ryegrass, Italian [12, 18]: 80
- Plant response rating, Ryegrass, Italian [12, 19]: 95
- Plant response rating, Ryegrass, Italian [12, 20]: 40
- Plant response rating, Ryegrass, Italian [12, 21]: 85
- Plant response rating, Ryegrass, Italian [12, 22]: 90
- Ryegrass, Italian plant response rating [12, 23]: 95
- Plant response rating, Soybean [13, 17]: 0
- Plant response rating, Soybean [13, 18]: 0
- Plant response rating, Soybean [13, 19]: 5
- Plant response rating, Soybean [13, 20]: 0
- Plant response rating, Soybean [13, 21]: 0
- Plant response rating, Soybean [13, 22]: 20
- Plant response rating, Velvetleaf [14, 17]: 25
- Plant response rating, Velvetleaf [14, 18]: 55
- Plant response rating, Velvetleaf [14, 19]: 85
- Plant response rating, Velvetleaf [14, 20]: 45
- Plant response rating, Velvetleaf [14, 21]: 60
- Plant response rating, Velvetleaf [14, 22]: 85
- Velvetleaf plant response rating [14, 23]: 100
- Plant response rating, Waterhemp [15, 17]: 25
- Plant response rating, Waterhemp [15, 18]: 55
- Plant response rating, Waterhemp [15, 19]: 45
- Plant response rating, Waterhemp [15, 20]: 50
- Plant response rating, Waterhemp [15, 21]: 75
- Plant response rating, Waterhemp [15, 22]: 65
- Waterhemp plant response rating [15, 23]: 80
- Plant response rating, Wheat [16, 17]: 0
- Plant response rating, Wheat [16, 18]: 5
- Plant response rating, Wheat [16, 19]: 15
- Plant response rating, Wheat [16, 20]: 0
- Plant response rating, Wheat [16, 21]: 0
- Plant response rating, Wheat [16, 22]: 5
- Wheat plant response rating [16, 23]: 35

SMILES: Cc1nn(C)c(=O)c(-c2cc(F)cc3ccccc23)c1OS(C)(=O)=O [Compound 115]
- Plant response rating, Barnyardgrass [1, 17]: 10
- Plant response rating, Barnyardgrass [1, 18]: 35
- Plant response rating, Barnyardgrass [1, 19]: 45
- Barnyardgrass plant response rating [1, 24]: 20
- Plant response rating, Blackgrass [2, 17]: 0
- Plant response rating, Blackgrass [2, 18]: 20
- Plant response rating, Blackgrass [2, 19]: 35
- Blackgrass plant response rating [2, 24]: 10
- Plant response rating, Corn [3, 17]: 5
- Plant response rating, Corn [3, 18]: 5
- Plant response rating, Corn [3, 19]: 15
- Corn plant response rating [3, 24]: 5
- Plant response rating, Foxtail, Giant [4, 25]: 5
- Plant response rating, Foxtail, Giant [4, 26]: 20
- Plant response rating, Foxtail, Giant [4, 27]: 35
- Plant response rating, Galium [5, 17]: 85
- Plant response rating, Galium [5, 18]: 95
- Plant response rating, Galium [5, 19]: 95
- Plant response rating, Johnsongrass [6, 17]: 5
- Plant response rating, Johnsongrass [6, 18]: 10
- Plant response rating, Johnsongrass [6, 19]: 20
- Plant response rating, Lambsquarters [7, 17]: 70
- Plant response rating, Lambsquarters [7, 18]: 90
- Plant response rating, Lambsquarters [7, 19]: 98
- Plant response rating, Morningglory [8, 17]: 55
- Plant response rating, Morningglory [8, 18]: 95
- Plant response rating, Morningglory [8, 19]: 100
- Plant response rating, Nutsedge, Yellow [9, 17]: 40
- Plant response rating, Nutsedge, Yellow [9, 18]: 65
- Plant response rating, Nutsedge, Yellow [9, 19]: 80
- Plant response rating, Pigweed [10, 17]: 30
- Plant response rating, Pigweed [10, 18]: 70
- Plant response rating, Pigweed [10, 19]: 90
- Plant response rating, Ragweed [11, 17]: 60
- Plant response rating, Ragweed [11, 18]: 95
- Plant response rating, Ragweed [11, 19]: 98
- Plant response rating, Ryegrass, Italian [12, 17]: 90
- Plant response rating, Ryegrass, Italian [12, 18]: 95
- Plant response rating, Ryegrass, Italian [12, 19]: 95
- Plant response rating, Soybean [13, 17]: 10
- Plant response rating, Soybean [13, 18]: 20
- Plant response rating, Soybean [13, 19]: 65
- Plant response rating, Velvetleaf [14, 17]: 15
- Plant response rating, Velvetleaf [14, 18]: 70
- Plant response rating, Velvetleaf [14, 19]: 65
- Plant response rating, Waterhemp [15, 17]: 65
- Plant response rating, Waterhemp [15, 18]: 90
- Plant response rating, Waterhemp [15, 19]: 90
- Plant response rating, Wheat [16, 17]: 0
- Plant response rating, Wheat [16, 18]: 0
- Plant response rating, Wheat [16, 19]: 5

SMILES: Cc1nn(C)c(=O)c(-c2ccc(F)c3ccccc23)c1OC(=O)CC(F)(F)F [Compound 123]
- Plant response rating, Barnyardgrass [1, 17]: 20
- Plant response rating, Barnyardgrass [1, 18]: 40
- Plant response rating, Barnyardgrass [1, 19]: 70
- Barnyardgrass plant response rating [1, 24]: 25
- Plant response rating, Blackgrass [2, 17]: 15
- Plant response rating, Blackgrass [2, 18]: 45
- Plant response rating, Blackgrass [2, 19]: 45
- Blackgrass plant response rating [2, 24]: 35
- Plant response rating, Corn [3, 17]: 10
- Plant response rating, Corn [3, 18]: 20
- Plant response rating, Corn [3, 19]: 20
- Corn plant response rating [3, 24]: 15
- Plant response rating, Foxtail, Giant [4, 25]: 20
- Plant response rating, Foxtail, Giant [4, 26]: 35
- Plant response rating, Foxtail, Giant [4, 27]: 80
- Plant response rating, Galium [5, 17]: 95
- Plant response rating, Galium [5, 18]: 95
- Plant response rating, Galium [5, 19]: 95
- Plant response rating, Johnsongrass [6, 17]: 5
- Plant response rating, Johnsongrass [6, 18]: 20
- Plant response rating, Johnsongrass [6, 19]: 25
- Plant response rating, Lambsquarters [7, 17]: 95
- Plant response rating, Lambsquarters [7, 18]: 100
- Plant response rating, Lambsquarters [7, 19]: 100
- Plant response rating, Morningglory [8, 17]: 95
- Plant response rating, Morningglory [8, 18]: 98
- Plant response rating, Morningglory [8, 19]: 100
- Plant response rating, Nutsedge, Yellow [9, 17]: 55
- Plant response rating, Nutsedge, Yellow [9, 18]: 85
- Plant response rating, Nutsedge, Yellow [9, 19]: 90
- Plant response rating, Pigweed [10, 17]: 65
- Plant response rating, Pigweed [10, 18]: 80
- Plant response rating, Pigweed [10, 19]: 98
- Plant response rating, Ragweed [11, 17]: 75
- Plant response rating, Ragweed [11, 18]: 95
- Plant response rating, Ragweed [11, 19]: 98
- Plant response rating, Ryegrass, Italian [12, 17]: 90
- Plant response rating, Ryegrass, Italian [12, 18]: 90
- Plant response rating, Ryegrass, Italian [12, 19]: 95
- Plant response rating, Soybean [13, 17]: 10
- Plant response rating, Soybean [13, 18]: 20
- Plant response rating, Soybean [13, 19]: 65
- Plant response rating, Velvetleaf [14, 17]: 65
- Plant response rating, Velvetleaf [14, 18]: 85
- Plant response rating, Velvetleaf [14, 19]: 95
- Plant response rating, Waterhemp [15, 17]: 80
- Plant response rating, Waterhemp [15, 18]: 100
- Plant response rating, Waterhemp [15, 19]: 100
- Plant response rating, Wheat [16, 17]: 5
- Plant response rating, Wheat [16, 18]: 15
- Plant response rating, Wheat [16, 19]: 20
